Reference: ChEMBL document CHEMBL3885861, “Open TG-GATES”

Species on record: Rattus norvegicus
Assay: Open TG-GATES - Regimen: Single
Type: toxicity, organism-based, Sprague-Dawley
Design: regimen Single, gender Male, age 6 weeks
Conditions: in vivo, po, 0 mg/kg, route gavage, dose level Control; for APTT / Bas / Eos / Fbg / Hb / Ht / Lym / MCH / MCHC / MCV / Mono / Neu / PT / Plat / RBC / Ret / WBC: tissue Blood; for KIDNEY_L / KIDNEY_R / KIDNEY_TOTAL: tissue Kidney; for LIVER: tissue Liver; for A/G / ALP / ALT / AST / BUN / CRE / Ca / Cl / DBIL / GLC / IP / K / LDH / Na / PL / RALB / TBIL / TC / TG / TP / gamma-GTP: tissue Plasma

## CN(C)CCN(Cc1cccs1)c1ccccn1
3 h
  TERMINAL_BW: 183.4 g
  APTT: 20.4 s
  Bas: 0%
  Eos: 0.4%
  Fbg: 308 mg/dL
  Hb: 13.1 g/dL
  Ht: 40.4%
  Lym: 76.8%
  MCH: 20.9 pg
  MCHC: 32.5%
  MCV: 64.2 fL
  Mono: 2.4%
  Neu: 20%
  PT: 16.5 s
  Plat: 124.4 x10_4/uL
  RBC: 629.4 x10_4/ul
  Ret: 7.8%
  WBC: 76.5 x10_2/uL
  KIDNEY_L: 0.8 g
  KIDNEY_R: 0.9 g
  KIDNEY_TOTAL: 1.7 g
  LIVER: 8.4 g
  A/G: 1.2
  ALP: 1580.4 IU/L
  ALT: 41.4 IU/L
  AST: 72.8 IU/L
  BUN: 14.4 mg/dL
  CRE: 0.2 mg/dL
  Ca: 10.3 mg/dL
  Cl: 107.4 meq/L
  DBIL: 0 mg/dL
  GLC: 181.8 mg/dL
  IP: 7.7 mg/dL
  K: 4.2 meq/L
  LDH: 227 IU/L
  Na: 142.8 meq/L
  PL: 127.6 mg/dL
  RALB: 2.9 g/dL
  TBIL: 0.008 mg/dL
  TC: 70.4 mg/dL
  TG: 42.6 mg/dL
  TP: 5.3 g/dL
  gamma-GTP: 1 IU/L
6 h
  TERMINAL_BW: 186.2 g
  APTT: 20.7 s
  Bas: 0%
  Eos: 0.4%
  Fbg: 303 mg/dL
  Hb: 12.6 g/dL
  Ht: 38.6%
  Lym: 84.6%
  MCH: 21 pg
  MCHC: 32.7%
  MCV: 64.1 fL
  Mono: 1.6%
  Neu: 12.4%
  PT: 17.2 s
  Plat: 119.7 x10_4/uL
  RBC: 603 x10_4/ul
  Ret: 7.8%
  WBC: 97.9 x10_2/uL
  KIDNEY_L: 0.9 g
  KIDNEY_R: 0.9 g
  KIDNEY_TOTAL: 1.7 g
  LIVER: 8.3 g
  A/G: 1.2
  ALP: 1742 IU/L
  ALT: 37.4 IU/L
  AST: 68.4 IU/L
  BUN: 10.8 mg/dL
  CRE: 0.2 mg/dL
  Ca: 10 mg/dL
  Cl: 106.2 meq/L
  DBIL: 0 mg/dL
  GLC: 174.2 mg/dL
  IP: 9 mg/dL
  K: 4.1 meq/L
  LDH: 171.6 IU/L
  Na: 141.8 meq/L
  PL: 127.2 mg/dL
  RALB: 2.9 g/dL
  TBIL: 0.016 mg/dL
  TC: 74.8 mg/dL
  TG: 44.6 mg/dL
  TP: 5.3 g/dL
  gamma-GTP: 1 IU/L
9 h
  TERMINAL_BW: 180.7 g
  APTT: 20.7 s
  Bas: 0%
  Eos: 0.8%
  Fbg: 296.8 mg/dL
  Hb: 13 g/dL
  Ht: 39.3%
  Lym: 82.2%
  MCH: 21.1 pg
  MCHC: 33.1%
  MCV: 63.9 fL
  Mono: 1.6%
  Neu: 14.8%
  PT: 15.6 s
  Plat: 121.1 x10_4/uL
  RBC: 615.8 x10_4/ul
  Ret: 7.7%
  WBC: 69.3 x10_2/uL
  KIDNEY_L: 0.8 g
  KIDNEY_R: 0.8 g
  KIDNEY_TOTAL: 1.6 g
  LIVER: 7.3 g
  A/G: 1.2
  ALP: 1371.8 IU/L
  ALT: 33.8 IU/L
  AST: 66.4 IU/L
  BUN: 11.2 mg/dL
  CRE: 0.2 mg/dL
  Ca: 10.1 mg/dL
  Cl: 106.8 meq/L
  DBIL: 0 mg/dL
  GLC: 177.8 mg/dL
  IP: 9.6 mg/dL
  K: 4.2 meq/L
  LDH: 171.2 IU/L
  Na: 142.4 meq/L
  PL: 133.2 mg/dL
  RALB: 2.9 g/dL
  TBIL: 0.018 mg/dL
  TC: 73.4 mg/dL
  TG: 59.4 mg/dL
  TP: 5.3 g/dL
  gamma-GTP: 1 IU/L
24 h
  TERMINAL_BW: 200.8 g
  APTT: 20.1 s
  Bas: 0%
  Eos: 0.8%
  Fbg: 280.8 mg/dL
  Hb: 12.9 g/dL
  Ht: 39.1%
  Lym: 79.2%
  MCH: 21.2 pg
  MCHC: 33%
  MCV: 64.3 fL
  Mono: 2.4%
  Neu: 17%
  PT: 16.5 s
  Plat: 120.3 x10_4/uL
  RBC: 608.2 x10_4/ul
  Ret: 8%
  WBC: 89.7 x10_2/uL
  KIDNEY_L: 0.9 g
  KIDNEY_R: 0.9 g
  KIDNEY_TOTAL: 1.8 g
  LIVER: 9.4 g
  A/G: 1.2
  ALP: 1802.6 IU/L
  ALT: 41.6 IU/L
  AST: 71.8 IU/L
  BUN: 16.8 mg/dL
  CRE: 0.2 mg/dL
  Ca: 11 mg/dL
  Cl: 105.6 meq/L
  DBIL: 0.002 mg/dL
  GLC: 188 mg/dL
  IP: 7.4 mg/dL
  K: 4.4 meq/L
  LDH: 206.4 IU/L
  Na: 142.4 meq/L
  PL: 149.8 mg/dL
  RALB: 3 g/dL
  TBIL: 0.018 mg/dL
  TC: 77.8 mg/dL
  TG: 92.6 mg/dL
  TP: 5.4 g/dL
  gamma-GTP: 1 IU/L
